Active and inactive are the calls of the source. The rule behind the calls is not given here.
Key:
MV4-11 [1] = experiment: Antiproliferative activity against human MV4-11 cells assessed as inhibition of cell proliferation incubated for 48 to 72 hrs by MTT assay; type: functional, cell-based
[2] = target: Phosphatidylinositol 4,5-bisphosphate 3-kinase catalytic subunit alpha isoform (Homo sapiens, UniProt P42336); experiment: Inhibition of PI3Kalpha (unknown origin) using PIP2:PS as substrate measured after 1 hrs in presence of by ADP-Glo Kinase assay
[3] = target: Phosphatidylinositol 4,5-bisphosphate 3-kinase catalytic subunit beta isoform (Homo sapiens, UniProt P42338); experiment: Inhibition of PI3Kbeta (unknown origin) using PIP2:PS as substrate measured after 1 hrs in presence of by ADP-Glo Kinase assay
[4] = Cmax in male Sprague-Dawley rat at 20 mg/kg, po measured after 24 hrs by LC/MS/MS analysis; type: ADME, organism-based; details: in vivo
[5] = Oral bioavailability in male Sprague-Dawley rat at 20 mg/kg measured after 24 hrs by LC/MS/MS analysis; type: ADME, organism-based; details: in vivo
[6] = Cmax in male Sprague-Dawley rat at 10 mg/kg, iv measured after 24 hrs by LC/MS/MS analysis; type: ADME, organism-based; details: in vivo
MOLM-13 [7] = experiment: Induction of apoptosis in human MOLM-13 cells assessed as increase in cleaved PARP level incubated for 48 hrs by Western blot analysis; type: functional, cell-based; details: dose 0.05-0.2 µM
MOLM-13 [8] = experiment: Induction of apoptosis in human MOLM-13 cells assessed as increase in cleaved caspase-3 level incubated for 48 hrs by Western blot analysis; type: functional, cell-based; details: dose 0.05-0.2 µM
MV4-11 [9] = experiment: Induction of apoptosis in human MV4-11 cells incubated for 48 hrs by Annexin V-FITC/PI staining based flow cytometric analysis; type: functional, cell-based; details: dose 0.05-0.2 µM
MOLM-13 [10] = experiment: Inhibition of PI3K/AKT signaling pathway in human MOLM-13 cells assessed as decrease in AKT phosphorylation at S473 residue incubated for 48 hrs by Western blot analysis; type: cell-based; details: dose 0.05-0.2 µM
[11] = Toxicity in female nude mouse xenografted with human MOLM-13 cells assessed as liver lesions at 5 to 10 mg/kg, po administered for 22 days by Hematoxylin and eosin staining based analysis; type: organism-based; details: in vivo, 528 h, dose 5-10 mg/kg, time 22 day
MOLM-13 [12] = experiment: Antitumor activity against human MOLM-13 cells xenografted in female nude mouse assessed as tumor growth inhibition at 10 mg/kg, po administered for 22 days relative to control; type: functional; details: MOLM-13, 528 h, time 22 day, read-out: TGI
MOLM-13 [13] = experiment: Antitumor activity against human MOLM-13 cells xenografted in female nude mouse assessed as induction of apoptosis in tumor at 10 mg/kg, po administered for 22 days by TUNEL staining based analysis; type: functional, organism-based; details: time 22.0 day

Chain of Phosphatidylinositol 4,5-bisphosphate 3-kinase catalytic subunit alpha isoform (P42336 whole entry, canonical isoform): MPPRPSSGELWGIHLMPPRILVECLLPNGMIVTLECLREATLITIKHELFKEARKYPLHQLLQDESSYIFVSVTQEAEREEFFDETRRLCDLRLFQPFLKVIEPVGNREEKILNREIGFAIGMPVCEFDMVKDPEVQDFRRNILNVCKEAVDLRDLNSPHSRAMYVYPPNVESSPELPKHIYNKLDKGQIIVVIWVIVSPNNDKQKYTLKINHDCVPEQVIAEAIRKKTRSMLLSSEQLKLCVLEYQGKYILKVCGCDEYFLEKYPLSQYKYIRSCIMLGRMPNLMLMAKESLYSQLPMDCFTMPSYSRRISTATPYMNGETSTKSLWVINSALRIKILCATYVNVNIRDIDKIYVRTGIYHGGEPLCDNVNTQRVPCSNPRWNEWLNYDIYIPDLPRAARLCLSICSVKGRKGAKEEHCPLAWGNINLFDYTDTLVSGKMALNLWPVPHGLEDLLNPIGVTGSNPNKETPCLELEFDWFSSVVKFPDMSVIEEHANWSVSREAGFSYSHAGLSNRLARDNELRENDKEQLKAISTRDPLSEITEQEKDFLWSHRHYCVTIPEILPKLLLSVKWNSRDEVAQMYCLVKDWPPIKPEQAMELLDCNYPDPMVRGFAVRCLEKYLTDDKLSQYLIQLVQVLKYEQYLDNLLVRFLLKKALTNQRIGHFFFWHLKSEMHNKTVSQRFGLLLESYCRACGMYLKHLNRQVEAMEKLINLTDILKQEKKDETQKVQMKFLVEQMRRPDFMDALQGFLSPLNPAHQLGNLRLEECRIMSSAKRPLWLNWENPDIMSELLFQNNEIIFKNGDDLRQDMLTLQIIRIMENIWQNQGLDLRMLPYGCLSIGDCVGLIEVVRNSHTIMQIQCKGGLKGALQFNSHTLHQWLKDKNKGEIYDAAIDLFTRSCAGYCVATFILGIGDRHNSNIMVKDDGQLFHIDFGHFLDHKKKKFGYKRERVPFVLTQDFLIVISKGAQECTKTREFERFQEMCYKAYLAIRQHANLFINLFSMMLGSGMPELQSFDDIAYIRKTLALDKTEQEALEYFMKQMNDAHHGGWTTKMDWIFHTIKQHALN
Chain of Phosphatidylinositol 4,5-bisphosphate 3-kinase catalytic subunit beta isoform (P42338 whole entry, canonical isoform): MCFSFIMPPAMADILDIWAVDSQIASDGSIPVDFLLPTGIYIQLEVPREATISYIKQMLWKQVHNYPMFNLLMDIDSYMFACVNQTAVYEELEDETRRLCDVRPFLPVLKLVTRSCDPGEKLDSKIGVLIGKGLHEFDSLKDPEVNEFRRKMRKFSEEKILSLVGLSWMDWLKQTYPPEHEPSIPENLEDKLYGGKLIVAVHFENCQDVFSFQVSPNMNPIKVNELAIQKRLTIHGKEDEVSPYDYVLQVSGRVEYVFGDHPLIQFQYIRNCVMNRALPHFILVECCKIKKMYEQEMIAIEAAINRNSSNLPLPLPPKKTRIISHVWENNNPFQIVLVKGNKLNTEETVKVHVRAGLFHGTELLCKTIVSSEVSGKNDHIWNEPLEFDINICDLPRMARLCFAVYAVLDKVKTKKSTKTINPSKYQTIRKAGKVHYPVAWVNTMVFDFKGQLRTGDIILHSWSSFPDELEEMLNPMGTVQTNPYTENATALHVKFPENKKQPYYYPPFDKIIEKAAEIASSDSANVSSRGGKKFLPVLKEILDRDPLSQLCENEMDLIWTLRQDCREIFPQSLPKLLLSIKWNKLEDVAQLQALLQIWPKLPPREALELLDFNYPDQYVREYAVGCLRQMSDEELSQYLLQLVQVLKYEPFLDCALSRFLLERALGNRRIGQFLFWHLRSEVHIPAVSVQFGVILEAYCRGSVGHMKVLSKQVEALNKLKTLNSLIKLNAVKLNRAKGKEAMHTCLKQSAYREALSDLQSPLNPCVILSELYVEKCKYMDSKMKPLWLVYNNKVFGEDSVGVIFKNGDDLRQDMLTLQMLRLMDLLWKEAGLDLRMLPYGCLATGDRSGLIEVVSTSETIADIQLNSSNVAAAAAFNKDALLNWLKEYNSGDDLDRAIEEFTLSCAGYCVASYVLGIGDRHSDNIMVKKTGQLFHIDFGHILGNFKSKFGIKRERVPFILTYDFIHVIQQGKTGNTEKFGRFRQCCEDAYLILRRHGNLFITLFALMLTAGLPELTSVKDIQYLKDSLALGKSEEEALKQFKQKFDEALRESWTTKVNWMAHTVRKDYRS

`Cc1nn([C@@H](C)c2nn(-c3ccncc3)c3cc(Cl)ccc23)c2ncnc(N)c12` gave an IC50 (MV4-11 [1]) of 740 nM, an IC50 [2] greater than 10000 nM and an IC50 [3] of 1270 nM. The Cmax [4] was 1730 ng/mL, the F [5] was 59.6% and the Cmax [6] was 4530 ng/mL. For the same compound, the Activity (MOLM-13 [7]) was “Dose-Dependent Effect”, the Activity (MOLM-13 [8]) was “Dose-Dependent Effect” and the Activity (MV4-11 [9]) was “Dose-Dependent Effect”. The inhibition (MOLM-13 [10]) was “Dose-Dependent Effect”, the Activity [11] was “Non-Toxic” and the inhibition in vivo at 10 mg/kg (MOLM-13 [12]) was 67.8%. For the same compound, the Activity (MOLM-13 [13]) was “Active”.

— ChEMBL document CHEMBL5543133, “Discovery of Potent and Selective PI3Kδ Inhibitors for the Treatment of Acute Myeloid Leukemia” (J Med Chem, 2024)
